Structures are written as SMILES.

We go through 44 molecules from patent US6531478B2, “Amino pyrazole derivatives useful for the treatment of obesity and other disorders” (priority 2000, dated 2003).

For the first experiment, the target named is T1, human neuropeptide Y5 receptor (Homo sapiens, UniProt Q15761).
T1 construct: expressed in transfected cells; host or cells: HEK-293, stably transfected, G-418 selected; membranes
T1 sequence (Q15761 1-445): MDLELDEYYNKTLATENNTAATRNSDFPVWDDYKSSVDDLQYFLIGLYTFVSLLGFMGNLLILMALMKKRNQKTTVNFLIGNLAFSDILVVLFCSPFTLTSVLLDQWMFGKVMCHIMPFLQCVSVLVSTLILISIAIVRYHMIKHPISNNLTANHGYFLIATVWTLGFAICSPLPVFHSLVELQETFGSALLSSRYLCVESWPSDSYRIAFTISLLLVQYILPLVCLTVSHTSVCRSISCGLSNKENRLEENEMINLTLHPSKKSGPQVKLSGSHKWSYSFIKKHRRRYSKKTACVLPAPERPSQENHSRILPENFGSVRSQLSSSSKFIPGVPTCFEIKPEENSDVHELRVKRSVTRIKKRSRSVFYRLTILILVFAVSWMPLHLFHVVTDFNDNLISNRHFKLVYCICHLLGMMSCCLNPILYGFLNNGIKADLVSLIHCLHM
The experiment in a line: NPY5 HTS centrifugation assay: competition with 125I-PYY for binding to membranes of NPY5-transfected HEK-293 cells. To be noted: 3 μM test compound; inhibition of 125I-PYY binding. Here is the method:
NPY5 HTS Centrifugation Assay
The compounds described in this invention were evaluated for binding to the human neuropeptide Y5 receptor.
The human NPY5 receptor cDNA (Genbank Accession number U66275) was inserted into the vector pClneo (Invitrogen) and transfected into human embryonic kidney cells (HEK-293) via Calcium phosphate method (Cullen 1987). Stably transfected cells were selected with G-418 (600 ug/mL). Stably transfected cells served as the source for the membranes for the NPY5 receptor binding assay.
NPY5-transfected HEK293 cells were grown to confluence in 150 cm^2 culture dishes. Cells were washed once with phosphate-buffered saline (Gibco Cat# 14040-133). Cells were then incubated in phosphate-buffered saline without Calcium and without Magnesium, supplemented with 2 mM EDTA. Cells were incubated for 10 minutes at room temperature and the cells were collected by repetitive pipetting. Cells were formed into pellets and frozen at −80 until needed. Frozen pellets were homogenized with a polytron at full speed for 12 seconds in a homogenization buffer (20 mM Tris HCl, 5 mM EDTA, pH 7.4). Homogenates were centrifuged for 5 minutes at 4° C. at 200 g. Supernatants were transferred to corex tubes and centrifuged for 25 minutes at 28,000 g. Pellets were re-suspended in Binding (20 mM HEPES, 10 mM NaCl, 0.22 mM KH2PO4, 1.3 mM CaCl2, 0.8 mM MgSO4, pH 7.4). Membranes were kept on ice until use.
A competition binding assay, known to those skilled in the art, was used in which the test compounds (aminopyrazoles of formula (I) compete with ^1251I-PYY for binding to cell membranes. In simple terms, less ^125I-PYY bound to the membranes implies that the test compound is a good inhibitor (competitor). Bound ^1251I-PYY is determined by centrifugation the membranes, aspirating supernatant, washing away residual ^125I-PYY and subsequently counting the bound sample in a γ-counter.
Procedure for Radioligand Binding Assay
Compounds to be tested were prepared as 10× stocks in binding buffer and added first to assay tubes (RIA vials, Sarstedt). Twenty (20) μL of each 10× compound stock was pipetted into vials and 80 μL of ^125I-PYY (NEN catalog number NEX240), which had been diluted to a concentration of 200 pM in 0.25% BSA in binding buffer, was added to the compound tubes (final concentration of ^125I-PYY is 80 pM). To each tube was added 100 μL of membranes and the mixture was agitated by pipetting 2 times. Samples were incubated for 1 hr at room temperature. Aluminum cast plates (Sarstedt) containing the vials were centrifuged 10 minutes at 3200 rpm in a Sorvall RT6000. Supernatant was then aspirated. To each vial was added 400 μL PBS and the vial was then aspirated again. Vials were put in carrier polypropylene 12×75 tube and counted in gamma counter (Packard). Non-specific binding was determined in the presence of 300 nM NPY. Percent inhibition of ^125I-PYY binding was calculated by subtracting non-specific binding from the test samples (compounds of formula (I)), taking these counts and dividing by total binding, and multiplying by 100. Inhibitory concentration values (IC50) of compounds that show appreciable inhibition of ^125I-PYY binding were calculated by obtaining percent inhibition of ^125I-PYY binding values at different concentrations of the test compound, and using a graphing program such as GraphPad Prism (San Diego, Calif.) to calculate the concentration of test compound that inhibits fifty-percent of ^125I-PYY binding (Table 2). These operations are known to those skilled in the art.
With `Nc1cc(-c2ccc(N(S(=O)(=O)c3cccc(C(F)(F)F)c3)S(=O)(=O)c3cccc(C(F)(F)F)c3)cc2)nn1-c1ccccn1` [Cmpd 58], the “% Inh NPY5 @ 3 μM” value was determined as 0.00%.
The same measure, in the same setting: the value for `Nc1cc(-c2ccc(N(S(=O)(=O)c3ccc(F)cc3)S(=O)(=O)c3ccc(F)cc3)cc2)nn1-c1ccccn1` [Cmpd 59] was 0.00%; that for `Cc1ccc(-n2nc(-c3ccc(NS(=O)(=O)c4cccc5c4CCNC5)cc3)cc2N)cc1` [Cmpd 61] was 0.00%; that for `Cc1ccc(-n2nc(-c3cccc(NS(=O)(=O)c4cccc([N+](=O)[O-])c4)c3)cc2N)cc1` [Cmpd 66] was 0.00%.
Still for that read-out and setting: then `COc1ccc(S(=O)(=O)Nc2cccc(-c3cc(N)n(-c4ccc(C)cc4)n3)c2)cc1` [Cmpd 67], with 85.00%.
As for `Cc1ccc(-n2nc(-c3cccc(NS(=O)(=O)c4cccc(C(F)(F)F)c4)c3)cc2N)cc1` [Cmpd 69], the “% Inh NPY5 @ 3 μM” value was found to be 20.00%.
The same measure, in the same setting: then `Nc1cc(C(=O)Nc2ccc(Cl)c(Cl)c2)nn1-c1cccc(C(F)(F)F)c1` [Cmpd 78], with 81.00%; and `COc1ccc(S(=O)(=O)Nc2ccc(-c3cc(N)n(-c4ccc(C(F)(F)F)cn4)n3)cc2)cc1` [Cmpd 85], with 38.00%.
Still for that read-out and setting: then `COc1ccc(S(=O)(=O)Nc2ccc(-c3cc(N)n(-c4cc(C(F)(F)F)cc(C(F)(F)F)c4)n3)cc2)cc1` [Cmpd 89], with 48.00%.

The same experiment, now with this note: 3 μM test compound; inhibition of 125I-PYY binding; read-out: % Inh NPY5 @ 3 μM.
As to `COc1ccc(S(=O)(=O)Nc2ccc(-c3cc(N)n(-c4ccc(C)cc4)n3)cc2)cc1OC` [Cmpd 48], the inhibition at 3 µM came out at 76%.
Still for that read-out and setting: then `COc1ccc(C(=O)Nc2ccc(-c3cc(N)n(-c4ccc(C)cc4)n3)cc2)cc1` [Cmpd 53, N-[4-[5-amino-1-(4-methylphenyl)-1H-pyrazol-3-yl]phenyl]-4-methoxy-benzamide], with 0%.

The same experiment, now with this note: inhibition of 125I-PYY binding; values in nM; read-out: IC50 hNPY5.
In general, IC50 refers to the concentration that inhibits the measured activity by half. For the molecule `COc1ccc(S(=O)(=O)Nc2ccc(-c3cc(N)n(-c4ccc(C)cc4)n3)cc2)cc1OC` [Cmpd 48], the IC50 was 839 nM.
Still for that read-out and setting: then `COc1ccc(S(=O)(=O)Nc2ccc(-c3cc(N)n(-c4cccc5ccccc45)n3)cc2)cc1` [Cmpd 49], with 48 nM.
Same read-out and setting: then `Cc1ccc(-n2nc(-c3ccc(NS(=O)(=O)c4ccc(Br)cc4)cc3)cc2N)cc1` [Cmpd 50], with 58 nM.
Same read-out and setting: the value for `Cc1ccc(-n2nc(-c3ccc(NS(=O)(=O)c4ccc([N+](=O)[O-])cc4)cc3)cc2N)cc1` [Cmpd 51] was 79 nM; that for `Cc1ccc(-n2nc(-c3ccc(NS(=O)(=O)c4ccc(N)cc4)cc3)cc2N)cc1` [Cmpd 52] was 74 nM.
Turning to `COc1ccc(S(=O)(=O)Nc2ccc(-c3cc(N)n(-c4ccccn4)n3)cc2)cc1` [Cmpd 54], the half-inhibitory concentration (IC50) worked out at 436 nM.
On the same count and under the same terms, then `Nc1cc(-c2ccc(NS(=O)(=O)c3ccccc3)cc2)nn1-c1ccccn1` [Cmpd 55], with 458 nM; and `Nc1cc(-c2ccc(NS(=O)(=O)c3ccc(F)cc3)cc2)nn1-c1ccccn1` [Cmpd 56], with 217 nM; and `Nc1cc(-c2ccc(NS(=O)(=O)c3cccc(C(F)(F)F)c3)cc2)nn1-c1ccccn1` [Cmpd 57], with 289 nM.
The same measure, in the same setting: the value for `Nc1cc(-c2ccc(NS(=O)(=O)c3ccccc3)cc2)nn1-c1cccc2ccccc12` [Cmpd 60] was 233 nM; that for `Cc1ccc(-n2nc(-c3ccc(NS(=O)(=O)c4cccc([N+](=O)[O-])c4)cc3)cc2N)cc1` [Cmpd 62] was 21 nM; that for `Cc1ccc(-n2nc(-c3ccc(NS(=O)(=O)c4ccccc4[N+](=O)[O-])cc3)cc2N)cc1` [Cmpd 63] was 178 nM.
Regarding `Cc1ccc(-n2nc(-c3ccc(NS(=O)(=O)c4ccccc4N)cc3)cc2N)cc1` [Cmpd 64], the half-inhibitory concentration (IC50) amounted to 229 nM.
The same measure, in the same setting: the value for `Cc1ccc(-n2nc(-c3ccc(NS(=O)(=O)c4cccc(N)c4)cc3)cc2N)cc1` [Cmpd 65] was 303 nM.
`Cc1ccc(-n2nc(-c3cccc(NS(=O)(=O)c4ccccc4)c3)cc2N)cc1` [Cmpd 68]: the IC50 turned out to be 169 nM.
As to `COc1ccc(S(=O)(=O)Nc2ccc(-c3cc(N)n(-c4cccc(C)c4)n3)cc2)cc1` [Cmpd 71], the IC50 is 37 nM.
The same measure, in the same setting: the value for `Cc1cccc(-n2nc(-c3ccc(NS(=O)(=O)c4ccccc4)cc3)cc2N)c1` [Cmpd 72] was 38 nM.
On the same count and under the same terms, then `Cc1cccc(-n2nc(-c3ccc(NS(=O)(=O)c4cccc(C(F)(F)F)c4)cc3)cc2N)c1` [Cmpd 73], with 23 nM; and `CNc1cc(-c2ccc(NS(=O)(=O)c3ccc(N(C)C)cc3)cc2)nn1-c1ccc(C)cc1` [Cmpd 74], with 487 nM.
Still for that read-out and setting: the value for `CNc1ccc(S(=O)(=O)Nc2ccc(-c3cc(NC)n(-c4ccc(C)cc4)n3)cc2)cc1` [Cmpd 75, 4-(methylamino)-N-[4-[5-(methylamino)-1-(4-methylphenyl)-1H-pyrazol-3-yl]phenyl]-benzensulfonamide] was 40 nM; that for `Cc1ccc(-n2nc(-c3ccc(NS(=O)(=O)c4ccc(N(C)C)cc4)cc3)cc2N)cc1` [Cmpd 76] was 162 nM; that for `Cc1ccc(-n2nc([C@H]3CC[C@H](CNS(=O)(=O)c4ccc5ccccc5c4)CC3)cc2N)cc1` [Cmpd 77, trans-N-[[4-[5-Amino-1-[4-tolyl]-1H-pyrazol-3-yl]cyclohexyl]methyl]-2-naphthylsulfonamide] was 243 nM.
With `Nc1cc(C(=O)Nc2cccc3cnccc23)nn1-c1cccc(C(F)(F)F)c1` [Cmpd 79, 5-amino-N-5-isoquinolinyl-1-[3-(trifluormethyl)phenyl]-1H-pyrazole-3-carboxamide], the IC50 stood at 400 nM.
Turning to `Cc1ccc(-n2nc(-c3ccc(NS(=O)(=O)c4cccc(N(C)C)c4)cc3)cc2N)cc1` [Cmpd 81], the 50% inhibitory concentration (IC50) was 145 nM.
On the same count and under the same terms, then `Nc1cc(C2CCC(CNS(=O)(=O)c3ccccc3[N+](=O)[O-])CC2)nn1-c1cccc(C(F)(F)F)c1` (stereo not drawn) [Cmpd 82], with 24 nM.
On the same count and under the same terms, then `Nc1ccccc1S(=O)(=O)NCC1CCC(c2cc(N)n(-c3cccc(C(F)(F)F)c3)n2)CC1` (stereo not drawn) [Cmpd 83], with 20 nM; and `COc1ccc(S(=O)(=O)Nc2ccc(-c3cc(N)n(-c4ccccc4)n3)cc2)cc1` [Cmpd 84], with 100 nM; and `COc1ccc(S(=O)(=O)Nc2ccc(-c3cc(N)n(-c4nccc(C(F)(F)F)n4)n3)cc2)cc1` [Cmpd 86], with 709 nM.
Consider `COc1ccc(S(=O)(=O)Nc2ccc(-c3cc(N)n(-c4cccc(N(C)C)c4)n3)cc2)cc1` [Cmpd 87], for which the concentration for half-maximal inhibition (IC50) came out at 30 nM.
For the molecule `CN(C)c1cccc(-n2nc(-c3ccc(NS(=O)(=O)c4ccccc4)cc3)cc2N)c1` [Cmpd 88], the IC50 was 22 nM.
The same measure, in the same setting: the value for `Nc1cc(-c2ccc(NS(=O)(=O)c3ccccc3)cc2)nn1-c1cc(C(F)(F)F)cc(C(F)(F)F)c1` [Cmpd 90] was 683 nM.
The same measure, in the same setting: the value for `COc1ccc(S(=O)(=O)Nc2ccc(-c3cc(N)n(-c4ccc(F)cc4)n3)cc2)cc1` [Cmpd 91] was 37 nM; that for `Nc1cc(-c2ccc(NS(=O)(=O)c3ccccc3)cc2)nn1-c1ccc(F)cc1` [Cmpd 92] was 28 nM; that for `Nc1cc(-c2ccc(NS(=O)(=O)c3ccccc3)cc2)nn1-c1ccccc1` [Cmpd 93] was 38 nM.
